Data reported in ChEMBL document CHEMBL3352802, “Injury-induced biosynthesis of methyl-branched polyene pigments in a white-rotting basidiomycete” (J Nat Prod, 2014).

Key:
HUVEC = test: Antiproliferative activity against HUVEC cells after 72 hrs; type: functional; conditions: Homo sapiens
K562 = test: Antiproliferative activity against human K562 cells after 72 hrs; type: functional; conditions: K562, 72 h
[1] = Cytotoxicity against human HeLa cells assessed as cell death; type: cell-based

Row | SMILES | GI50 (HUVEC) | GI50 (K562) | CC50 [1]
1 | CC(=O)/C(C)=C/C=C/C=C\C=C\C=C\C=C\C=C\C=C/CC(=O)O | 71.6 µM | 15.4 µM | 44.1 µM
2 | CCc1c2c(nc3ccc(OC(=O)N4CCC(N5CCCCC5)CC4)cc13)-c1cc3c(c(=O)n1C2)COC(=O)[C@]3(O)CC [IRINOTECAN] |  | 1.9 µM | 
3 | CC(=O)/C(C)=C/C=C/C=C\C=C\C=C\C=C\C=C\C=C/C=C/CC(=O)O | 17.4 µM | 1.1 µM | 45.1 µM
4 | CC/C(=C(\c1ccccc1)c1ccc(OCCN(C)C)cc1)c1ccccc1 [TAMOXIFEN] |  | 5.2 µM | 
5 | CC(=O)[C@]1(O)Cc2c(O)c3c(c(O)c2[C@@H](O[C@H]2C[C@H](N)[C@H](O)[C@H](C)O2)C1)C(=O)c1ccccc1C3=O [IDARUBICIN] |  | 3.3 µM | 
